Where a SMILES comes first, the peptide text is derived from it. Where no end group is shown, it is not given here. [ ]: non-standard residue; d: D form.
Tests used:
His-JNK1 = biological target: T1, His-JNK1 (Homo sapiens, UniProt P45983); assay: AlphaScreen assay, inhibition of JNK1 mediated phosphorylation of biotin-cJun substrate; assay type: biochemical; conditions: compared with L-TAT-IB1; JNK isoform not stated
T1 construct: His; purchased Upstate 14-327
Method: In the following the standard operating procedure will be set forth describing how the Inhibitory efficacy of JNK inhibitors according to the present invention was measured. The method allows to measure in vitro, in a non radioactive standardized assay, the ability of a candidate compound to decrease the phosphorylation of the c-Jun specific substrate by JNK. Moreover, it will be illustrated how to determine the inhibitory effect (IC50) and the Ki of a chosen compound for JNK.
• His-JNK1 (ref 14-327, Upstate, 10 μg in 100 μl: concentration: 2.2 μM) 5 nM final • His-JNK2 (ref 14-329, Upstate, 10 μg in 100 μl: concentration: 2 μM) 5 nM final • His-JNK3 (ref 14-501, Upstate, 10 μg in 100 μl: concentration: 1.88 μM) 5 nM final • Anti-Phospho-cJun (ref 06-828, Upstate, lot DAM1503356, concentration: 44.5 μM) 10 nM final • Biotin-cJun (29-67): • sequence: Biotin-[…] […]
The bioluminescent energy transfer was read on the Fusion Alpha Plate reader (Perkin Elmer). […]

[1] = Stability (half-life) of JNK inhibitors in human serum, UPLC-MS
Method: The experiment was performed as described by Tugyi et al. (Proc Natl Acad Sci USA, 2005, 413-418). The remaining intact peptide was quantified by UPLC-MS.

[2] = system: primary rat lymph-nodes purified T cells; assay: CD3/CD28-induced IL-2 release in primary rat lymph-nodes purified T cells; assay type: cell-based; conditions: inhibitor added 1 h before CD3/CD28 (2 μg/mL), supernatant after 24 h
Method: Control rat were sacrificed and lymph-nodes were harvested. T cells further were purified (using magnetic negative selection) and plated into 96-well plates at 200,000 cells/well. Cells were treated with anti-rat CD3 and anti-rat CD28 antibodies (2 μg/mL). JNK inhibitor with SEQ ID NO: 172 was added to the cultures 1 h before CD3/CD28 treatment and IL-2 release was assessed in supernatant 24 h after treatment.
Control animal were sacrificed, lymph nodes (LN) were harvested and kept in complete RPMI medium. LN were smashed with complete RPMI on 70 μm filter using a 5 ml piston. A few drops of media were added to keep strainer wet. Cells were centrifuged for 7 min at 450 g and 4° c. Pellet was resuspended in 5 ml fresh medium. Cells were passed again through cell strainer. An aliquot of cells was counted, while cells were centrifuged again 10 min at 1400 rpm and 4° c. Cells were resupended in MACS buffer (80 μl of MACS buffer per 10^7 cells). 10 μl of anti-rat MHC microbeads were added per 10 million cells, cells were incubated for 15 min at 4°-8° C. Cells were washed with 15 ml MACS buffer and centrifuge for 7 min at 700 g and 4° C. […] Resuspended cells were counted and plated at density of 200000 cells/well in 100 μl of complete medium. […] Cytokines were then measured using standard Elisa kits. Results are expressed as pg/ml of supernatant of the measured cytokine. […]

Hela cells = assay: Internalization of TAT derived transporters, 24 hours incubation, fluorescence of cell extracts; assay type: cell-based; conditions: FIG. 6; Y in position 2
Method: The transporter sequences analyzed correspond to SEQ ID NOs: 52-94 plus SEQ ID NOs: 45, 47, 46, 43 and 99 (FIG. 6a) and SEQ ID NOs: 100-147 (FIG. 6b). […] Hela cells were incubated 24 hours in 96 well plate with […] of the respective transporters. The cells were then washed twice with an acidic buffer (0.2M Glycin, 0.15M NaCl, pH 3.0) and twice with PBS. Cells were broken by the addition of RIPA lysis buffer. The relative amount of internalized peptide was then determined by reading the fluorescence intensity (Fusion Alpha plate reader; PerkinElmer) of each extract followed by background subtraction.
Hela cells were incubated 24 hours in 96 well plate with […] of the r3-L-TAT-derived transporters. The cells were then washed twice with an acidic buffer (0.2M Glycin, 0.15M NaCl, pH 3.0) and twice with PBS. Cells were broken by the addition of RIPA lysis buffer. The relative amount of internalized peptide was then determined by reading the fluorescence intensity (Fusion Alpha plate reader; PerkinElmer) of each extract followed by background subtraction

T1 sequence (P45983 1-384 isoform P45983-2): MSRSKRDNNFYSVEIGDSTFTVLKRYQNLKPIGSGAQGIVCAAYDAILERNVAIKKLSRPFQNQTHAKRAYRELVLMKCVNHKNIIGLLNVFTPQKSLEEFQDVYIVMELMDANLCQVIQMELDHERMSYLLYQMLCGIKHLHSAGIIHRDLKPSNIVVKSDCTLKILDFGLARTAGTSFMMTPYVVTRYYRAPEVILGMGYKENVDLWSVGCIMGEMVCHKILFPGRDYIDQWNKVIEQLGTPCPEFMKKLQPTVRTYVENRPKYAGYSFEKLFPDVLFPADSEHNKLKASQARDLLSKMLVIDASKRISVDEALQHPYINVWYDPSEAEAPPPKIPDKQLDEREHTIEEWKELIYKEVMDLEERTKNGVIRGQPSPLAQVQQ

In the case of “dqsrpvqpflnlttprkprpprrrqrrkkrg ([dD][dQ][dS][dR][dP][dV][dQ][dP][dF][dL][dN][dL][dT][dT][dP][dR][dK][dP][dR][dP][dP][dR][dR][dR][dQ][dR][dR][dK][dK][dR]G) [SEQ ID NO: 197]”, the “inhibitory capacity (JNK inhibition, FIG. 4)” value (His-JNK1) is reported as “significant decrease in inhibitory capacity in comparison to L-TAT-IB1”, the “sensitivity to proteolytic degradation” value [1] is reported as “extremely stable towards proteolytic digestion” and the “CD3/CD28-induced IL-2 release” value [2] is reported as “Dose-dependent inhibition”.
With `CC(C)C[C@H](NC(=O)[C@H](CC(N)=O)NC(=O)[C@H](CC(C)C)NC(=O)[C@@H](NC(=O)[C@@H](C)NC(=O)[C@@H]1CCCN1C(=O)[C@H](CCCNC(=N)N)NC(=O)[C@@H](CCCCN)NC(=O)[C@@H]1CCCN1C(=O)[C@H](CCCNC(=N)N)NC(=O)[C@@H](CCCNC(=N)N)NC(=O)[C@H](CCCNC(=N)N)NC(=O)[C@H](CCCNC(=N)N)NC(=O)[C@H](CCC(N)=O)NC(=O)[C@@H](CCCNC(=N)N)NC(=O)[C@H](CCCNC(=N)N)NC(=O)[C@H](CCCCN)NC(=O)[C@H](CCCCN)NC(=O)[C@H](N)CCCNC(=N)N)[C@@H](C)O)C(=O)N[C@H](Cc1ccccc1)C(N)=O` [SEQ ID NO: 172, rKKRrQRRrRPkRPaTLNLf] (H-[dR]KKR[dR]QRR[dR]RP[dK]RP[dA]TLNL[dF]-NH2; N-terminus assumed) the “time until completely degraded” value ([1]; human serum (50%; 10 and 50% in PBS 1×), 0.1 mM peptide) was 14 days.
In the case of “rYKRrQRRr ([dR]YKR[dR]QRR[dR]) [SEQ ID NO: 142]”, the transporter activity (Hela cells) is reported as “highest transporter activity”.

Reference: patent publication US8981052B2, “JNK inhibitor molecules” (Xigen Inflammation Ltd., priority 2010, dated 2015)
